Measurements taken from ChEMBL document CHEMBL5104203.

What follows are compounds tested against Trehalose-binding lipoprotein LpqY (Mycobacterium tuberculosis) (UniProt P9WGU9) (assay: Binding affinity to RED-NHS labelled Mycobacterium tuberculosis LpqY expressed in Escherichia coli BL21 (DE3) assessed as dissociation constant incubated for 10 mins by Microscale thermophoresis analysis). Conditions: DDE = dose-dependent effect.
Chain of Trehalose-binding lipoprotein LpqY (Mycobacterium tuberculosis) (P9WGU9 whole entry): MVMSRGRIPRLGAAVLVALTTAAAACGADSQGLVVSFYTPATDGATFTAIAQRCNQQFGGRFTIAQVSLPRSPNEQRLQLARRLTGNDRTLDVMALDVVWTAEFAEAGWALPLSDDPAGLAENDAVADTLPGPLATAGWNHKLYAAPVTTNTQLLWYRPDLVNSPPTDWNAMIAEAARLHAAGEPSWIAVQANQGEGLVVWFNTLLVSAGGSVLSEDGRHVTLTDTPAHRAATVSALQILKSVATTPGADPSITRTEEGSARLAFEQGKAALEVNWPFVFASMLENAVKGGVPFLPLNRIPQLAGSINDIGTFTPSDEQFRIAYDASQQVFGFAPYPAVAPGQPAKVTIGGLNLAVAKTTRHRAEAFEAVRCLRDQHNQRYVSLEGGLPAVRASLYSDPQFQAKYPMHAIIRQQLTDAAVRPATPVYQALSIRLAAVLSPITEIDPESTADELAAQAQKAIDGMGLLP
With `COc1cc(NC(C)CCCN)c2ncccc2c1` (stereo not drawn) the Activity was “Dde”. `CNC(=O)c1nn(C)c2c1C(C)(C)Cc1cnc(Nc3ccc(N4CCN(C)CC4)cc3)nc1-2` was tested, and the Activity was “Dde”. With `Nc1cccnc1Nc1ccc(Cl)cc1` the Activity was “Dde”.
